How the values were obtained:
[1] = test system: H929 tumors; experiment: H929 xenograft tumor model (tumors 150±20 mm^3); assay type: in vivo, NOD-SCID mice; details: 28 days
Description: (§3) To generate subcutaneous tumors, 2×10^7 H929 cells in PBS were mixed with 50% (v/v) extracellular matrix gel and injected subcutaneously into the flanks of NOD-SCID mice. Tumor size and body weight were recorded every 2-3 days. Volumes of subcutaneously xenografted tumors in vivo were determined using an external caliper, where tumor volume was calculated by the modified ellipsoid formula, ½×(length×width×width). […] At the end of experiments, tumors were collected and weighed. Statistical analysis was performed with Student t test and statistical differences between groups were analyzed by one-way ANOVA with Bonferroni's multiple comparison post-tests.

[2] = test system: U266-CD38- cells; experiment: alamarBlue cell viability assay, U266-CD38- cells; assay type: cell-based; details: 5 days, FIG. 12F
Description: (§1) Briefly, H929, U266-CD38^−, MM.1S, and Daudi cells were seeded at 5,000 cells/well in 96-well plates and co-cultured with fresh medium containing different test articles with the indicated concentrations at 37° C. for 5 hours, 1 day, 3 days, or 5 days. The viabilities of the cells were determined by alamarBlue™ cell viability reagent. About 10 μl alamarBlue™ cell viability reagent was added to the cells with a final concentration of 10% v/v, followed by incubating at 37° C. for 1.5 hours. The fluorescence was measured on a microplate reader in arbitrary fluorescent units following excitation at 560 nm and emission at 590 nm.
(§2) H929 cells were incubated for 5 hours, 1 day, 3 days, or 5 days (FIGS. 12A-12D), and MM.1S, U266-CD38-, and Daudi cells were incubated for 5 days (FIGS. 12E-12G). Then, cell viability was determined.

[3] = test system: MM.1S cells; experiment: alamarBlue cell viability assay, MM.1S cells; assay type: cell-based, human
Description: as §1, §2

[4] = test system: H929 cells; experiment: alamarBlue cell viability assay, H929 cells; assay type: cell-based, human
Description: as §1, §2

[5] = HPLC analysis after 5-day incubation in PBS or RPMI medium without cells; assay type: physicochemical; details: 1 μM in PBS, 37° C., 5 days
Description: The total run time was 45 minutes.
(Panels (A) and (D) of FIG. 8B).

[6] = test system: H929 tumors; experiment: H929 xenograft tumor model, pilot study (tumors 115±15 mm^3); details: single dose 20 nmol/kg i.p. 7 days post-transplantation, measured for 21 days
Description: as §3
The tumors from all mice were excised and weighed on day 21 post drug administration.

Row | Compound | tumor growth compared to PBS ([1]; daily i.p. injections) | killing effect [2] | cell killing ([3]; at doses >10 μM) | cell killing ([4]; at doses >10 μM) | HPLC peaks after long-term incubation (hydrolysis) [5] | tumor growth compared to PBS ([1]; single dose 20 nmol/kg on day 14 after transplantation) | effect of cell death ([3]; even at doses >20 μM) | change of tumor sizes compared to PBS [6] | effect of cell death ([4]; even at doses >20 μM)
1 | Nc1cccc2c1CN(C1CCC(=O)NC1=O)C2=O (stereo not shown) [lenalidomide] | inhibited tumor growth | some killing effect at high concentrations | only weak killing | only weak killing | two additional peaks (p2 and p1) respectively corresponding to its two hydrolyzed forms | – | – | – | –
2 | daratumumab | – | did not possess any killing effect | – | – | – | inhibited tumor growth | no effect of cell death | could only slow down tumor growth | no effect of cell death

From US20240342298A1, “METHODS OF TREATING TUMORS BY USING MOLECULAR CONSTRUCT” (Immunwork Inc., priority 2023, published 2024)
